Measurements: patent US8299070B2, “Indole compounds and pharmaceutical use thereof” (Japan Tobacco Inc., priority 2009, dated 2012)

Target: T1, hITK enzyme (FLAG-tagged full-length hITK) (Homo sapiens, UniProt Q08881)
T1 construct: strongly expressing FLAG-tagged full-length hITK in Sf9 cells; FLAG; made in house; host or cells: Sf9 insect cells (ITK); Escherichia coli (GST-SLP76 substrate)
T1 sequence (Q08881 1-620): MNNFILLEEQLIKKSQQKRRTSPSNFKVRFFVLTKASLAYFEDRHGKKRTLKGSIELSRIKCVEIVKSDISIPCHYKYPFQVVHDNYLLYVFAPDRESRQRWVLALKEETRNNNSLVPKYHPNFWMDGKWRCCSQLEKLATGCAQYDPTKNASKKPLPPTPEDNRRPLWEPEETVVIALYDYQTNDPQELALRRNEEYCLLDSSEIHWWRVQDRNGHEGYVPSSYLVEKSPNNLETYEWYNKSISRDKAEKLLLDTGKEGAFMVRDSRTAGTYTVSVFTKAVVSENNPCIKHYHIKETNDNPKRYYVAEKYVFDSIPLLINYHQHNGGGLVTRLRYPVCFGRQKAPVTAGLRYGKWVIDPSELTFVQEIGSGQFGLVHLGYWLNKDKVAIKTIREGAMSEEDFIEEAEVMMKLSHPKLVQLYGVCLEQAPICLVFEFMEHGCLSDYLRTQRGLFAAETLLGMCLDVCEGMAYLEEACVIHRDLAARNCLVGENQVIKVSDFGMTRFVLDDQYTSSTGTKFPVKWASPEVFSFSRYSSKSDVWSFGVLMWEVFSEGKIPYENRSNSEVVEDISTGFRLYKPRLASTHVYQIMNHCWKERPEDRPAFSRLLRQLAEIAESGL
Test: ITK inhibitory activity (HTRF kinase assay, biotinylated GST-SLP76 substrate)
Type: biochemical
Conditions: ATP concentration of the substrate solution 6 μmol/L (Examples 380 and 381)
In short: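 Sf9-expressed hITK (50 ng/mL enzyme solution) reacted 10 min at RT in MOPS pH 7.0, 10 mmol/L MgCl2, 1 mmol/L DTT with E. coli SLP76 aa95–175 substrate; substrate solution held 100 µmol/L ATP (6 µmol/L for selected compounds). HTRF 665/620 ratio, blank-corrected; IC50 interpolated between two concentrations bracketing 50% inhibition.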

Point of comparison: `C[C@H](C(=O)N(C)c1ccc2cc(-c3n[nH]c4c3CCC(C)(C)C4)[nH]c2c1)N1CCOCC1` [Example 381], IC50 2 nM. Against it:
- CC(NCCOCC(=O)O)C(=O)N(C)c1ccc2cc(-c3n[nH]c4c3CCC(C)(C)C4)[nH]c2c1 (stereo not shown) [Example 380] — the same, 2 nM

Same assay, conditions: IC50 calculated from the 2 test compound concentrations sandwiching 50% ITK inhibitory rate

Point of comparison: `CC(N)C(=O)N(C)c1ccc2cc(-c3n[nH]c4c3CCC(C)(C)C4)[nH]c2c1` (stereo not shown) [Example 377], IC50 6 nM. Against it:
- C[C@@H](C(=O)Nc1ccc2cc(-c3n[nH]c4c3CCC(C)(C)C4)[nH]c2c1)N1CCOCC1 [Example 375] — 18-fold higher, 110 nM
- CC(NCCO)C(=O)N(C)c1ccc2cc(-c3n[nH]c4c3CCC(C)(C)C4)[nH]c2c1 (stereo not shown) [Example 376] — 3-fold lower, 2 nM
- CC(C(=O)N(C)c1ccc2cc(-c3n[nH]c4c3CCC(C)(C)C4)[nH]c2c1)N1CCOC(O)C1 (stereo not shown) [Example 378] — 3-fold lower, 2 nM
- CC(C(=O)N(C)c1ccc2cc(-c3n[nH]c4c3CCC(C)(C)C4)[nH]c2c1)N(CCO)CC(=O)O (stereo not shown) [Example 379] — 1.5-fold lower, 4 nM
